Measurements reported in PubChem BioAssay (NCI).
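Exposure lasted 48 hours, with cells grown in 96-well plates and compounds tested at five concentrations. Abbreviation: GI50, concentration required for 50% inhibition of growth. At the TGI there is no net growth.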

Tests used:
Assay in all cases: growth of human tumour cells (NCI), 48 h
[1] = test system: 786-0 renal
[2] = test system: A498 renal
[3] = test system: A549 NSCLC
[4] = test system: ACHN renal
[5] = test system: BT-549 breast
[6] = test system: CAKI-1 renal
[7] = test system: CCRF-CEM leukemia
[8] = test system: COLO 205 colon
[9] = test system: DLD-1 colon
[10] = test system: DMS 114 small cell lung
[11] = test system: DMS 273 small cell lung
[12] = test system: DU-145 prostate
[13] = test system: EKVX NSCLC
[14] = test system: HCC-2998 colon
[15] = test system: HCT-116 colon
[16] = test system: HCT-15 colon
[17] = test system: HL-60(TB) leukemia
[18] = test system: HOP-18 NSCLC
[19] = test system: HOP-62 NSCLC
[20] = test system: HOP-92 NSCLC
[21] = test system: HS 578T breast
[22] = test system: HT29 colon
[23] = test system: IGROV1 ovarian
[24] = test system: K-562 leukemia
[25] = test system: KM12 colon
[26] = test system: KM20L2 colon
[27] = test system: LOX IMVI melanoma
[28] = test system: LXFL 529 NSCLC
[29] = test system: M14 melanoma
[30] = test system: M19-MEL melanoma
[31] = test system: MALME-3M melanoma
[32] = test system: MCF7 breast
[33] = test system: MDA-MB-231 breast
[34] = test system: MDA-MB-435
[35] = test system: MOLT-4 leukemia
[36] = test system: NCI-H226 lung
[37] = test system: NCI-H23 lung
[38] = test system: NCI-H460 lung
[39] = test system: NCI-H522 lung
[40] = test system: NCI/ADR-RES ovarian
[41] = test system: OVCAR-3 ovarian
[42] = test system: OVCAR-4 ovarian
[43] = test system: OVCAR-5 ovarian
[44] = test system: OVCAR-8 ovarian
[45] = test system: PC-3 prostate
[46] = test system: RPMI-8226 leukemia
[47] = test system: RXF 393 renal
[48] = test system: RXF-631 renal
[49] = test system: SF-268 CNS
[50] = test system: SF-295 CNS
[51] = test system: SF-539 CNS
[52] = test system: SK-MEL-2 melanoma
[53] = test system: SK-MEL-28 melanoma
[54] = test system: SK-MEL-5 melanoma
[55] = test system: SK-OV-3 ovarian
[56] = test system: SN12C renal
[57] = test system: SNB-19 CNS
[58] = test system: SNB-75 CNS
[59] = test system: SNB-78 CNS
[60] = test system: SR leukemia
[61] = test system: SW-620 colon
[62] = test system: T-47D breast
[63] = test system: TK-10 renal
[64] = test system: U251 CNS
[65] = test system: UACC-257 melanoma
[66] = test system: UACC-62 melanoma
[67] = test system: UO-31 renal

## C/C(=N\NC(N)=O)C(CN1CCCCC1)C(c1ccccc1)c1c(O)c2ccccc2oc1=O (stereo not drawn)
[1]
  TGI: > 59.5 µM
[2]
  TGI: > 100 µM
[3]
  TGI: > 100 µM
[4]
  TGI: > 100 µM
[5]
  GI50: 86.7 µM
  TGI: > 100 µM
[6]
  TGI: > 100 µM
[7]
  TGI: > 100 µM
[8]
  TGI: > 100 µM
[9]
  TGI: > 100 µM
[10]
  TGI: > 100 µM
[11]
  TGI: > 100 µM
[12]
  GI50: > 100 µM
  TGI: > 100 µM
[13]
  TGI: > 100 µM
[14]
  TGI: > 100 µM
[15]
  TGI: > 100 µM
[16]
  TGI: > 100 µM
[17]
  TGI: > 72.9 µM
[18]
  TGI: > 100 µM
[19]
  TGI: > 100 µM
[20]
  GI50: 21.6 µM
  TGI: > 100 µM
[21]
  GI50: 79.4 µM
  TGI: > 100 µM
[22]
  TGI: > 100 µM
[23]
  TGI: > 100 µM
[24]
  TGI: > 100 µM
[25]
  TGI: > 100 µM
[26]
  TGI: > 100 µM
[27]
  TGI: > 100 µM
[28]
  TGI: > 100 µM
[29]
  TGI: > 100 µM
[30]
  TGI: > 100 µM
[31]
  TGI: > 100 µM
[32]
  GI50: > 100 µM
  TGI: > 100 µM
[33]
  GI50: > 100 µM
  TGI: > 100 µM
[34]
  GI50: > 100 µM
  TGI: > 100 µM
[35]
  TGI: > 94.4 µM
[36]
  TGI: > 100 µM
[37]
  GI50: > 100 µM
  TGI: > 100 µM
[38]
  TGI: > 100 µM
[39]
  TGI: > 100 µM
[40]
  GI50: > 100 µM
  TGI: > 100 µM
[41]
  TGI: > 100 µM
[42]
  TGI: > 100 µM
[43]
  TGI: > 100 µM
[44]
  TGI: > 100 µM
[45]
  GI50: 95.3 µM
  TGI: > 100 µM
[46]
  TGI: > 100 µM
[47]
  TGI: > 100 µM
[48]
  TGI: > 100 µM
[49]
  TGI: > 100 µM
[50]
  TGI: > 100 µM
[51]
  TGI: > 100 µM
[52]
  TGI: > 100 µM
[53]
  TGI: > 100 µM
[54]
  TGI: > 100 µM
[55]
  TGI: > 100 µM
[56]
  TGI: > 100 µM
[57]
  TGI: > 100 µM
[58]
  TGI: > 100 µM
[59]
  TGI: > 100 µM
[60]
  TGI: > 100 µM
[61]
  TGI: > 100 µM
[62]
  GI50: > 100 µM
  TGI: > 100 µM
[63]
  TGI: > 100 µM
[64]
  TGI: > 100 µM
[65]
  TGI: > 100 µM
[66]
  TGI: > 100 µM
[67]
  TGI: > 100 µM
